The target in one assay is T1, CB2 receptor (Rattus norvegicus, UniProt Q9QZN9).
T1 sequence (Q9QZN9 1-360): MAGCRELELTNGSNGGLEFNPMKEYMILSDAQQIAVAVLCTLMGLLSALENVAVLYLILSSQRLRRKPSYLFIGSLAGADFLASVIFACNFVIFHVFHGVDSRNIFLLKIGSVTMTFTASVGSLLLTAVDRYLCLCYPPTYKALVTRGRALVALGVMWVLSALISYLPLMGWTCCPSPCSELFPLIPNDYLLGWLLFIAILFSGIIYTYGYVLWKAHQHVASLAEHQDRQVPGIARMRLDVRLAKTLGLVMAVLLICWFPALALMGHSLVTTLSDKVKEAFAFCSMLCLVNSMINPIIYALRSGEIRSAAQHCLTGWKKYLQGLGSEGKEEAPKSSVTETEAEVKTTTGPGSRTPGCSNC
The conditions noted are these: background literature statement; cited from earlier work.

The next assay concerns Male CD-1 mice. Put plainly: Hot-plate nociception test. Format: in vivo, mouse. The conditions noted are these: 30 min after dosing, 48° C. hot plate, cut-off 90 sec, ± SEM. The source says:
The hot-plate test originally described by Eddy and Leimbach (J. Pharmacol. Exp. Ther. 107:385-393, 1953) with minor modifications (e.g., O'Callaghan and Holtzman, J. Pharmacol. Exp. Ther. 192: 497-505, 1975) was used to ascertain the analgesic potential of investigated compounds. The hot plate analgesia meter used for these studies was produced by Columbus Instruments International (Columbus, Ohio).
Male CD-1 mice (30-35 g) were weighed, placed in a plastic box with wood chips and allowed to acclimate before testing. An individual mouse was placed on a 48° C. heated surface and locomotion on the plate was constrained by a glass cylinder. The time interval between placement and a shaking, licking or tucking of either hind-paw (nociceptive response) was recorded as the Baseline measurement. Animals were removed from the heated plate immediately after responding or after a maximum of 40 sec to prevent tissue damage. Each mouse was tested only once.
One treatment group (9 animals each) was then injected i.p. with vehicle (5% DMSO and 5% Tween-80 in sterile saline). The other treatment groups (8 animals each) were injected i.p. with 10 or 30 mg/kg Compound I. Thirty minutes after test compound administration, each animal was assessed for a response with a maximum cut-off of 90 sec. […]

For assay [1], the system named is male Sprague-Dawley rats. Kind of assay: Carrageenan model of inflammatory pain, radiant heat paw withdrawal, compound given before carrageenan (Example 1). To be noted: 1 h before 1% carrageenan, mean ± SEM, cutoff 20 sec. Format: in vivo, rat. The method, then: Intraplantar injection of carrageenan (Cg) in a rodent produces pronounced hypersensitivity to both thermal and mechanical stimuli. The effects of carrageenan are maximal 2-4 hr after administration.
(§1) To assess the ability of test compounds to reverse thermal hyperalgesia, baseline response latencies on a radiant heat (RH) paw stimulator were obtained before an intraplantar injection of carrageenan-λ (200 μL) in male Sprague-Dawley rats (250-350 g in treatment groups of […] each). Only withdrawal responses that were quick hind paw movements (with or without licking of the hind paw) were recorded. Paw movements associated with locomotion or a shifting of weight were not considered a withdrawal response.
(§2) The weight of each animal was recorded on the day of the experiment. Each animal was placed on a warm (approx. body temperature, 30° C.) glass surface and allowed to acclimate to the test chamber for approximately 10-15 minutes. A radiant thermal stimulus (beam of light) was then focused on the sole of each hind paw in turn, and an initial (baseline) response time to thermal stimuli was recorded for each animal. The stimulus intensity (radiant heat at a setting of 5 Amps) that produced 10-15 sec baseline withdrawal latencies was used and a maximum cutoff of 20 sec was imposed. The light stimulus was automatically shut off by a photoelectric relay when the foot moved or when the cut-off time limit was reached.
One treatment group (8 animals each) was injected i.p. with vehicle (5% DMSO and 5% Tween-80 in sterile saline). The other treatment groups (8 animals each) were injected i.p. with 3, 10 or 30 mg/kg Compound 7.
One hour later, withdrawal latencies for the animals administered vehicle were recorded. After assessment, all animals were administered 1% carrageenan (200 μL in sterile saline) subcutaneously into the sub-plantar tissue of the left hind paw to stimulate an acute inflammatory reaction. Three hours later, the response time of the animals to the thermal stimulus was evaluated.

Assay [2] concerns male Sprague-Dawley rats. Kind of assay: Carrageenan model of inflammatory pain, radiant heat paw withdrawal, compound given after carrageenan (Example 2). Format: in vivo, rat. To be noted: read thirty minutes after compound, mean ± SEM. The method, then:
as §1, §2
The experiment of Example 1 was repeated with the exception that animals were first administered 1% carrageenan (200 μL in sterile saline) subcutaneously into the sub-plantar tissue of the left hind paw to stimulate an acute inflammatory reaction.
Two and a half hours later, withdrawal latencies were assessed (‘post-Cg’). One treatment group (7 animals each) was then injected i.p. with vehicle (5% DMSO and 5% Tween-80 in sterile saline). The other treatment groups (8 animals each) were injected i.p. with 3, 10 or 30 mg/kg Compound 7. Thirty minutes after test compound administration withdrawal latencies were recorded.

The subject of assay [3] is Rats (male Sprague Dawley). Put plainly: Visceral hyperalgesia model, colorectal distension after zymosan colitis. The assay is classed as in vivo, rat. To be noted: ± SEM. As for the experimental part:
This protocol uses barostat-controlled, isobaric colorectal distensions (CRD) in rats to evaluate the potency and efficacy of test compounds in treating visceral hyperalgesia.
Rats (male Sprague Dawley (275-350 g; CD(SD); Charles River Labs) are housed 2 to 4 animals per cage in a temperature and humidity controlled room with a 12 hr/12 hr light/dark cycle, with ad libitum access to food and water.
One day after release from quarantine, the animals were acclimated to progressively longer (30 min and 4 hr later, 45 min) periods of simple restraint in plexiglas devices (G-3, rat ECU; Braintree Scientific; Braintree Mass.). The animals were returned to their home cages overnight. The next day they were acclimated in the restraint device for 60 min in the morning. 4 hrs later, the animals were lightly anesthetized with 70% CO2:30% O2. A highly compliant, 4 cm long polyethylene balloon, lubricated with K-Y Jelly was then inserted via the anus into the rectum and distal colon. The balloon was positioned such that the aboral end was 1 cm from the anus and was secured in place by taping the balloon catheter to the base of the tail. The catheter was connected to a computerized barostat that controlled the inflation of the balloon and the resulting colorectal distension. The balloon pressure, representing intracolonic pressure, was continuously recorded.
CRD in conscious animals elicits a reflex visceromotor response consisting of contraction of the anterior abdominal wall muscles (Ness T J and Gebhart G F, Colorectal distension as a noxious visceral stimulus: physiologic and pharmacologic characterization of pseudaffective reflexes in the rat, Brain Res., (1988), 450: 153-169). Contraction of these muscles increases intraabdominal pressure and subsequently increases intracolonic pressure. Changes in intracolonic pressure are transduced through the same balloon used to deliver the CRD. The manometric endpoint has recently been reported to mimic electromyographic responses recorded from anterior abdominal wall muscles in rats (Tammpere A, Brusberg M, Axenborg J, Hirsch I, Larsson H and Lindstrom E, Evaluation of pseudo-affective responses to noxious colorectal distension in rats by manometric recordings, Pain, (2005), 116: 220-226)
Stimulus-response data were obtained by delivering two series of 20 sec ramp (15, 30, 45, 60, 75 mmHg) distensions at four-minute intervals and recording the manometric response as follows: the intracolonic pressure signal is passed through a digital 1 Hz highpass filter, rectified and the integral of the initial 15 seconds of the CRD subjected to baseline subtraction (the 15 sec immediately preceding balloon distension); the responses at each distending pressure are averaged to obtain a control stimulus/response curve for each animal. The colorectal balloons were then removed and the animals were returned to their home cages.
The following morning, one treatment group (4 animals) was injected i.p. with 10 mg/kg Compound 7 (solubilized in 5% DMSO and 5% Tween-80 in sterile saline).
One hour later, an acute colitis was induced in all treatment groups by the intracolonic instillation of a 1.5 mL bolus of 2.5% (w/v) zymosan A (from Saccharomyces cerevisiae; Sigma Chemical Co., St. Louis) in 30% ethanol (under light 70% CO2:30% O2 anesthesia). Four hours later, the animals were lightly anesthetized and the colorectal balloons inserted as on the previous day for controlled distensions. The identical CRD stimuli was applied and manometric responses were recorded and analyzed as described for the control phase of the experiment.
The animals in one treatment group (4 animals) were then subcutaneously (s.c.) dosed with 1 mg/kg morphine. As a comparator for analgesic response, animals in another treatment group (9 animals) were dosed s.c. with 3 mg/kg morphine 4 hrs after colitis initiation and 30 min prior to CRD.

On to `CN1CCCCC1Cn1cc(C(=O)c2cc([N+](=O)[O-])ccc2I)c2ccccc21` (stereo not shown) [AM1241], for which the “antinociception to thermal stimuli” value at CB2 receptor is “produces antinociception to thermal stimuli”.
Consider `O=C(N[C@H](CO)c1ccccc1)c1n[nH]c2c1CCCCC2Cc1cccc(Cl)c1` (stereo partly drawn) [Compound 1, 8-(3-chloro-benzyl)-1,4,5,6,7,8-hexahydro-cycloheptapyrazole-3-carboxylic acid [(1S)-2-hydroxy-1-phenyl-ethyl]-amide], for which the “% MPE (percent maximal effect)” value with Male CD-1 mice (10 mg/kg i.p.) amounted to 20.58 ± 9.27 % MPE; in the assay on Male CD-1 mice (30 mg/kg i.p.), 4.25 ± 10.65 % MPE.
As to `C[C@H](NS(=O)(=O)/C=C/c1n[nH]c2c1CCCC/C2=C\c1ccc(Cl)cc1)c1ccccc1` [Compound 7, (2E,8E)-2-[8-(4-chloro-benzylidene)-1,4,5,6,7,8-hexahydro-cycloheptapyrazol-3-yl]-ethenesulfonic acid [(1S)-1-phenyl-ethyl]-amide], the “withdrawal latency to radiant thermal stimulus, 3 hrs post Cg administration” value in the assay with male Sprague-Dawley rats [1] (3 mg/kg i.p.) came to 8.44 ± 1.88 s; in the assay on male Sprague-Dawley rats [1] (10 mg/kg i.p.), 7.87 ± 1.01 s; with male Sprague-Dawley rats [1] (30 mg/kg i.p.) it was 6.05 ± 0.83 s. The “withdrawal latency to radiant thermal stimulus, 0.5 hrs post Cg” value was found to be 5.30 ± 0.48 s with male Sprague-Dawley rats [2] (3 mg/kg i.p. given 2.5 h after carrageenan), 5.33 ± 0.48 s in the assay with male Sprague-Dawley rats [2] (10 mg/kg i.p. given 2.5 h after carrageenan) and 4.53 ± 0.39 s with male Sprague-Dawley rats [2] (30 mg/kg i.p. given 2.5 h after carrageenan). For the same compound, the “manometric response, percent of initial (control) response” value amounted to 245.7 ± 87.76% in assay [3] (15 mmHg distension, 10 mg/kg i.p. 1 h before zymosan colitis, n = 4); 527.2 ± 196.8% in assay [3] (30 mmHg distension, 10 mg/kg i.p. 1 h before zymosan colitis, n = 4); 301.3 ± 104.2% in assay [3] (45 mmHg distension, 10 mg/kg i.p. 1 h before zymosan colitis, n = 4); 243.7 ± 66.53% in assay [3] (60 mmHg distension, 10 mg/kg i.p. 1 h before zymosan colitis, n = 4); 230.9 ± 51.95% in assay [3] (75 mmHg distension, 10 mg/kg i.p. 1 h before zymosan colitis, n = 4).
Turning to `CN1CC[C@]23c4c5ccc(O)c4O[C@H]2[C@@H](O)C=C[C@H]3[C@H]1C5` [Morphine, morphine, reference compound], the “manometric response, percent of initial (control) response” value in assay [3] (15 mmHg distension, morphine 3 mg/kg s.c. 4 hrs after colitis initiation, 30 min prior to CRD, n = 9) is listed as 96.34 ± 12.53%; in assay [3] (30 mmHg distension, morphine 3 mg/kg s.c. 4 hrs after colitis initiation, 30 min prior to CRD, n = 9), 69.96 ± 11.21%; in assay [3] (45 mmHg distension, morphine 3 mg/kg s.c. 4 hrs after colitis initiation, 30 min prior to CRD, n = 9), 61.69 ± 8.72%; in assay [3] (60 mmHg distension, morphine 3 mg/kg s.c. 4 hrs after colitis initiation, 30 min prior to CRD, n = 9) it was 56.33 ± 8.23%; in assay [3] (75 mmHg distension, morphine 3 mg/kg s.c. 4 hrs after colitis initiation, 30 min prior to CRD, n = 9), 63.18 ± 9.19%.

These data come from US20080234347A1, “METHOD FOR TREATING CB2 RECEPTOR MEDIATED PAIN” (priority 2007, published 2008).
